The results in this text go back to paper PMC11511665 (2024).

The structures appear in SMILES notation.

Experiment [1] concerns Clivia (R8 aptamer, GAAA tetraloop) (RNA, aptamer) GGAAGAUUGUAAACAUGCCGAAAGGCAGACACUUCC
As to the kind of experiment: X-ray crystallography. The note with it: Mg2+ (0.05 M MgCl2); 0.1 M HEPES pH 7.5, 30% PEG MME 550, 16 °C.

In experiment [2] the test system is M11 (add 2bp in P1; Ad-2bp-P1) (RNA, aptamer) GGGGAAGAUUGUAAACAUGCCGAAAGGCAGACACUUCCCC
As to the kind of experiment: fluorescence titration, Hill fit. The note with it: 100 mM KCl, 5 mM MgCl2; 40 mM HEPES pH 7.4; 20 nM RNA.

The subject of experiment [3] is Clivia (R8 aptamer, GAAA tetraloop) (RNA, aptamer) GGAAGAUUGUAAACAUGCCGAAAGGCAGACACUUCC
As to the kind of experiment: X-ray crystallography, 1.6 Å. Particulars: Mg2+ (0.05 M MgCl2); 0.1 M HEPES pH 7.5, 30% PEG MME 550, 16 °C.

For experiment [4], the system named is Clivia_VI (VI_R8) (RNA, aptamer) GGAAGAUUGUAAACAGCGAGAUUGUAAACAGCGAGAUUGUAAACAGCGAGAUUGUAAACAGCGAGAUUGUAAACAGCGAGAUUGUAAACAUGCCGAAAGGCAGACACUCGCGACACUCGCGACACUCGCGACACUCGCGACACUCGCGACACUUUC
As to the kind of experiment: fluorescence activation. The note with it: 100 mM KCl, 5 mM MgCl2; 40 mM HEPES pH 7.4.

For experiment [5], the system named is U7G (RNA, aptamer) GGAAGAGUGUAAACAUGCCGAAAGGCAGACACUUCC
The experiment in a line: fluorescence titration, Hill fit. The note with it: 100 mM KCl, 5 mM MgCl2; 40 mM HEPES pH 7.4; 20 nM RNA.

For experiment [6], the system named is Clivia_V (V_R8) (RNA, aptamer) GGAAGAUUGUAAACAGCGAGAUUGUAAACAGCGAGAUUGUAAACAGCGAGAUUGUAAACAGCGAGAUUGUAAACAUGCCGAAAGGCAGACACUCGCGACACUCGCGACACUCGCGACACUCGCGACACUUUC
The experiment in a line: fluorescence activation. Particulars: 100 mM KCl, 5 mM MgCl2; 40 mM HEPES pH 7.4.

Experiment [7] deals with M3 (A11C/A12C/A13C) (RNA, aptamer) GGAAGAUUGUCCCCAUGCCGAAAGGCAGACACUUCC
As to the kind of experiment: fluorescence activation. The note with it: 100 mM KCl, 5 mM MgCl2; 40 mM HEPES pH 7.4; 1 μM fluorophore, 5 μM RNA.

The subject of experiment [8] is M13 (add 2bp in P2; Ad-2bp-P2) (RNA, aptamer) GGAAGAUUGUAAACAUGCCGCGAAAGCGGCAGACACUUCC
As to the kind of experiment: fluorescence titration, Hill fit. The note with it: 100 mM KCl, 5 mM MgCl2; 40 mM HEPES pH 7.4; 20 nM RNA.

Experiment [9] relates to M5 (U8C/A29G) (RNA, aptamer) GGAAGAUCGUAAACAUGCCGAAAGGCAGGCACUUCC
As to the kind of experiment: fluorescence activation. The note with it: 100 mM KCl, 5 mM MgCl2; 40 mM HEPES pH 7.4; 1 μM fluorophore, 5 μM RNA.

In experiment [10] the test system is M7 (A15G/G28A) (RNA, aptamer) GGAAGAUUGUAAACGUGCCGAAAGGCAAACACUUCC
As to the kind of experiment: fluorescence activation. The note with it: 100 mM KCl, 5 mM MgCl2; 40 mM HEPES pH 7.4; 1 μM fluorophore, 5 μM RNA.

The test system of experiment [11] is M8 (G28U) (RNA, aptamer) GGAAGAUUGUAAACAUGCCGAAAGGCAUACACUUCC
The experiment in a line: fluorescence activation. The note with it: 100 mM KCl, 5 mM MgCl2; 40 mM HEPES pH 7.4; 1 μM fluorophore, 5 μM RNA.

Experiment [12] has as its system M6 (U8A/A29U) (RNA, aptamer) GGAAGAUAGUAAACAUGCCGAAAGGCAGUCACUUCC
As to the kind of experiment: fluorescence activation. Particulars: 100 mM KCl, 5 mM MgCl2; 40 mM HEPES pH 7.4; 1 μM fluorophore, 5 μM RNA.

For experiment [13], the system named is Clivia_IV (IV_R8) (RNA, aptamer) GGAAGAUUGUAAACAGCGAGAUUGUAAACAGCGAGAUUGUAAACAGCGAGAUUGUAAACAUGCCGAAAGGCAGACACUCGCGACACUCGCGACACUCGCGACACUUUC
As to the kind of experiment: fluorescence activation. The note with it: 100 mM KCl, 5 mM MgCl2; 40 mM HEPES pH 7.4.

For experiment [14], the system named is M4 (A11U/A12U/A13U) (RNA, aptamer) GGAAGAUUGUUUUCAUGCCGAAAGGCAGACACUUCC
As to the kind of experiment: fluorescence activation. Particulars: 100 mM KCl, 5 mM MgCl2; 40 mM HEPES pH 7.4; 1 μM fluorophore, 5 μM RNA.

Experiment [15] concerns M1 (delete U7; Del-U7) (RNA, aptamer) GGAAGAUGUAAACAUGCCGAAAGGCAGACACUUCC
The experiment in a line: fluorescence activation. Particulars: 100 mM KCl, 5 mM MgCl2; 40 mM HEPES pH 7.4; 1 μM fluorophore, 5 μM RNA.

Experiment [16] has as its system M12 (delete 2bp in P2; Del-2bp-P2) (RNA, aptamer) GGAAGAUUGUAAACACCGAAAGGGACACUUCC
The experiment in a line: fluorescence titration, Hill fit. The note with it: 100 mM KCl, 5 mM MgCl2; 40 mM HEPES pH 7.4; 20 nM RNA.

For experiment [17], the system named is U7A (RNA, aptamer) GGAAGAAUGUAAACAUGCCGAAAGGCAGACACUUCC
As to the kind of experiment: fluorescence titration, Hill fit. The note with it: 100 mM KCl, 5 mM MgCl2; 40 mM HEPES pH 7.4; 20 nM RNA.

In experiment [18] the test system is M9 (A15C) (RNA, aptamer) GGAAGAUUGUAAACCUGCCGAAAGGCAGACACUUCC
As to the kind of experiment: fluorescence activation. The note with it: 100 mM KCl, 5 mM MgCl2; 40 mM HEPES pH 7.4; 1 μM fluorophore, 5 μM RNA.

Experiment [19] has as its system Clivia (R8 aptamer, GAAA tetraloop) (RNA, aptamer) GGAAGAUUGUAAACAUGCCGAAAGGCAGACACUUCC
As to the kind of experiment: fluorescence titration, Hill fit. The note with it: 100 mM KCl, 5 mM MgCl2; 40 mM HEPES pH 7.4; 20 nM RNA.

Experiment [20] relates to M2 (A11G/A12G/A13G) (RNA, aptamer) GGAAGAUUGUGGGCAUGCCGAAAGGCAGACACUUCC
As to the kind of experiment: fluorescence activation. The note with it: 100 mM KCl, 5 mM MgCl2; 40 mM HEPES pH 7.4; 1 μM fluorophore, 5 μM RNA.

Experiment [21] relates to Clivia_II (II_R8) (RNA, aptamer) GGAAGAUUGUAAACAGCGAGAUUGUAAACAUGCCGAAAGGCAGACACUCGCGACACUUUC
The experiment in a line: fluorescence activation. The note with it: 100 mM KCl, 5 mM MgCl2; 40 mM HEPES pH 7.4.

Experiment [22] has as its system U7C (RNA, aptamer) GGAAGACUGUAAACAUGCCGAAAGGCAGACACUUCC
As to the kind of experiment: fluorescence titration, Hill fit. Particulars: 100 mM KCl, 5 mM MgCl2; 40 mM HEPES pH 7.4; 20 nM RNA.

Experiment [23] deals with M10 (delete 2bp in P1; Del-2bp-P1) (RNA, aptamer) GAGAUUGUAAACAUGCCGAAAGGCAGACACUC
The experiment in a line: fluorescence titration, Hill fit. Particulars: 100 mM KCl, 5 mM MgCl2; 40 mM HEPES pH 7.4; 20 nM RNA.

The subject of experiment [24] is Clivia_III (III_R8) (RNA, aptamer) GGAAGAUUGUAAACAGCGAGAUUGUAAACAGCGAGAUUGUAAACAUGCCGAAAGGCAGACACUCGCGACACUCGCGACACUUUC
The experiment in a line: X-ray crystallography. Particulars: 0.2 M MgCl2; 20% PEG 3350, 16 °C.

`CN1C(=O)/C(=C/c2cc(F)c(O)c(F)c2)N=C1/C=C/c1ccc(C#N)cc1`: the binding entry in experiment [1] is “yes”.

On to `CN1C(=O)/C(=C/c2cc(F)c(O)c(F)c2)N=C1/C=C/c1ccccc1`, for which the binding result in experiment [1] was “yes”.

Turning to `CN1C(=O)/C(=C/c2ccc(N(C)CCO)cc2)N=C1/C=C/c1ccccc1`, the dissociation constant (Kd) (as a rule, the free concentration of one partner at which half of the binding sites on the other are occupied at equilibrium, for simple one-to-one binding) in experiment [2] came to 61 nM; in [5], 152 ± 12 nM; in experiment [8], 55 nM; in experiment [16], 44 nM; in experiment [17], 107 ± 12 nM; in [19] it was 71 ± 15 nM. Besides, the Kd in [22] was 46 ± 3 nM; in [23], 84 nM. Moreover, the binding result is reported as “yes” in experiment [3]; “yes” in experiment [4]; “yes” in experiment [6]; “no” in experiment [7]; “no” in [9]; “no” in experiment [10]. The binding entry is reported as “weak” in [11]; “no” in experiment [12]; “yes” in [13]; “no” in experiment [14]; “no” in experiment [15]; “no” in experiment [18]. Further, the binding result in [20] was “no”; in experiment [21], “yes”; in [24], “yes”.

On to `CN1C(=O)/C(=C/c2cc(F)c(O)c(F)c2)N=C1/C=C/c1ccc(O)cc1`, for which the binding result in experiment [1] is on record as “yes”.
